Results taken from ChEMBL document CHEMBL1135344, “Synthesis and antiviral/antiproliferative activity of some N-sulphonylbenzimidazoles” (Bioorg Med Chem Lett, 2002).
In brackets after ≈: the same amount, converted by molar mass.

What was measured:
Human alphaherpesvirus 3 [1] = assay: Antiviral activity was tested against TK+ Varicella-Zoster virus OKA which reduces virus plaque formation by 50%; type: functional, organism-based
HEL [2] = assay: Minimum cytotoxic concentration against HEL cell morphology.; type: functional; conditions: Homo sapiens
Human alphaherpesvirus 3 [3] = assay: Antiviral activity was tested against TK+ Varicella-Zoster virus YS which reduces virus plaque formation by 50%; type: functional, organism-based
HEL [4] = assay: Cytotoxic concentration reducing HEL cell growth by 50%.; type: functional; conditions: Homo sapiens
Human alphaherpesvirus 3 [5] = assay: Antiviral activity was tested against TK- Varicella-Zoster virus YS/R which reduces virus plaque formation by 50%; type: functional, organism-based
Human alphaherpesvirus 3 [6] = assay: Antiviral activity was tested against TK- Varicella-Zoster virus 07/1 which reduces virus plaque formation by 50%; type: functional, organism-based
Human betaherpesvirus 5 [7] = assay: Antiviral activity was tested against human cytomegalovirus Davis which reduces virus plaque formation by 50%; type: functional, organism-based
Human betaherpesvirus 5 [8] = assay: Antiviral activity was tested against human cytomegalovirus AD-169 which reduces virus plaque formation by 50%; type: functional, organism-based

Row | Compound | IC50 (Human alphaherpesvirus 3 [1]) [µg/mL] | MCC (HEL [2]) [µg/mL] | IC50 (Human alphaherpesvirus 3 [3]) [µg/mL] | CC50 (HEL [4]) [µg/mL] | IC50 (Human alphaherpesvirus 3 [5]) [µg/mL] | IC50 (Human alphaherpesvirus 3 [6]) [µg/mL] | IC50 (Human betaherpesvirus 5 [7]) [µg/mL] | IC50 (Human betaherpesvirus 5 [8]) [µg/mL]
1 | Nc1nc2c(ncn2COCCO)c(=O)[nH]1 [ACYCLOVIR] | 0.35 (≈ 1.55 µM) | > 50 | 0.38 (≈ 1.69 µM) | > 200 | 3.1 (≈ 13.8 µM) | 6.5 (≈ 28.9 µM) | – | –
2 | O=c1[nH]c(=O)n([C@H]2C[C@H](O)[C@@H](CO)O2)cc1/C=C/Br [BRIVUDINE] | 0.002 (≈ 0.006 µM) | > 50 | 0.003 (≈ 0.00901 µM) | > 200 | 6.4 (≈ 19.2 µM) | 6.8 (≈ 20.4 µM) | – | –
3 | Nc1ccn(C[C@@H](CO)OCP(=O)(O)O)c(=O)n1.O.O [CIDOFOVIR] | – | > 50 | – | > 50 | – | – | 0.3 | 0.1
4 | Nc1nc2c(ncn2COC(CO)CO)c(=O)[nH]1 [GANCICLOVIR] | – | > 50 | – | > 50 | – | – | 0.4 (≈ 1.57 µM) | 0.3 (≈ 1.18 µM)
